From patent EP4667464A1 (Cyrus Therapeutics Inc., priority 2023, dated 2024) come the findings set out here.

The target in assay [1] is T1, KRAS G12C::SOS1 (Homo sapiens, UniProt Q07889).
T1 construct: purchased CISBIO 64KRASG12PEH
T1 sequence (Q07889 1-1333): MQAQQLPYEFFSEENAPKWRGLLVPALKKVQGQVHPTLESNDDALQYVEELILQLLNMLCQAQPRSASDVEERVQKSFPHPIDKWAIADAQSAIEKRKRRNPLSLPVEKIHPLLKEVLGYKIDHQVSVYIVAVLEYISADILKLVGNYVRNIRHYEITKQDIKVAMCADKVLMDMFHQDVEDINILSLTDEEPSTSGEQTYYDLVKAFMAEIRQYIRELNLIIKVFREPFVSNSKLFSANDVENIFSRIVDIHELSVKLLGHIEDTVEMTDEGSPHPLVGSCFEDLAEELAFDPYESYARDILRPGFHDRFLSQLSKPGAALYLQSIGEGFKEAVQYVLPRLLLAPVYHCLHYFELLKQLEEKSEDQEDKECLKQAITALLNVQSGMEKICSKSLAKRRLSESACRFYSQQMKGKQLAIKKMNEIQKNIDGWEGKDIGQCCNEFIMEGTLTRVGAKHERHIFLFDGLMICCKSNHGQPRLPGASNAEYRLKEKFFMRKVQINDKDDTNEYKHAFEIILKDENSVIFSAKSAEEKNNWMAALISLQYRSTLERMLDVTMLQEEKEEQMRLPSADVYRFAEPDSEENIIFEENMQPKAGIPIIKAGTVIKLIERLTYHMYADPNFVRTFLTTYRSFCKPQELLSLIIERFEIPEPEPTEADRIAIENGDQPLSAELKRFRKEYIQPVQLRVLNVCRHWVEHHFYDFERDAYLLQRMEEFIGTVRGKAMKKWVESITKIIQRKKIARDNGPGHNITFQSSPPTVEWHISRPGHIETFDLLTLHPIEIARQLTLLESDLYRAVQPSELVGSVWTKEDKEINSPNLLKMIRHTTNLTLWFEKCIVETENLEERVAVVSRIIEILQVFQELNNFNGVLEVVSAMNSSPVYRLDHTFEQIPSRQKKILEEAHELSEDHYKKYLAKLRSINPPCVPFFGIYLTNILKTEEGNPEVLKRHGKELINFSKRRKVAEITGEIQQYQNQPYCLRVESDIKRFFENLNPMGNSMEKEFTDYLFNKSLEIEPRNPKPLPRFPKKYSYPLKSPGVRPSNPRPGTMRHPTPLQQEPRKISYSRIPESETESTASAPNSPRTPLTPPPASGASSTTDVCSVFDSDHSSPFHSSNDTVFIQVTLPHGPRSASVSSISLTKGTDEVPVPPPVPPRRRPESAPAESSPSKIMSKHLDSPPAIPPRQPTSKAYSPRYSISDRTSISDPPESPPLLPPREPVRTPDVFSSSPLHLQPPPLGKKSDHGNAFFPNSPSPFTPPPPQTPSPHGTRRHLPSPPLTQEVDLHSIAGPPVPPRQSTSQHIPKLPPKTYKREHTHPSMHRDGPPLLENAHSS
The assay can be described thus: KRAS G12C::SOS1 protein-protein interaction (PPI) inhibition assay (HTRF). The assay is classed as binding. In a few lines: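 Compounds, at eight 3-fold dilutions from 3 µM, were mixed with GTP-loaded Tag1-KRAS G12C, Tag2-SOS1 and a terbium-cryptate donor plus XL665 acceptor antibody pair. After 2 h at room temperature, time-resolved FRET reported the KRAS–SOS1 interaction.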
Background: TR-FRET usually uses a lanthanide donor and a delayed reading to cut background.

For assay [2], the target named is T2, SOS1 (Homo sapiens, UniProt Q07889).
T2 construct: HIS-SOS1cat (160 nM; Cytoskeleton, US); His (N); purchased Cytoskeleton
T2 sequence (Q07889 564-1049 limits assumed): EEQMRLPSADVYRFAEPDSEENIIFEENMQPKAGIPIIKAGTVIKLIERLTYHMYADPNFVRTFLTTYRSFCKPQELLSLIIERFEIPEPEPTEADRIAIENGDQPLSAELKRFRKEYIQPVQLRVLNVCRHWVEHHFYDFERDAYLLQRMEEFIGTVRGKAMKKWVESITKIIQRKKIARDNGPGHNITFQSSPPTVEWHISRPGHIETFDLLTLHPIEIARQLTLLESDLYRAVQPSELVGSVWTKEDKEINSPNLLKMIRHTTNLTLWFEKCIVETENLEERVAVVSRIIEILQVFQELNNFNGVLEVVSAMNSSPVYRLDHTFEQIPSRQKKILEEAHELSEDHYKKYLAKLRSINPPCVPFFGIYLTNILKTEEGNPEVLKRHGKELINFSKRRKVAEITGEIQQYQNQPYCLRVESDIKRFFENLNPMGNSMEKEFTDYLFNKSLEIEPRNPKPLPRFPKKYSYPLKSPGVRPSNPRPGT
The assay can be described thus: SOS-catalyzed nucleotide exchange assay (HTRF, SOS1-mediated GTP loading of KRAS G12D). Format: biochemical.

[3] abbreviates: 8 concentrations from 3 µM, three replicates, read-out: KRAS G12C::SOS1 PPI.
Setting [4] is: GST-KRAS G12D, HIS-SOS1cat, compound 128 pM to 10 µM, read-out: SOS-catalyzed nucleotide exchange assay.

Where two headings read alike, the source gives them in different places.

Turning to `C[C@@H](NC(=O)c1ccc(=O)n(-c2cncc(-c3cnnn3C3CNC3)c2)n1)c1cccc(C(F)(F)F)c1F` [Example 19], the IC50 in assay [1] (setting [3]) and in assay [2] (setting [4]) was less than 50 nM each time.
Take `C[C@@H](NC(=O)c1ccc(=O)n(-c2cncc(-c3cnnn3C3CN(C)C3)c2)n1)c1cccc(C(F)(F)F)c1F` [Example 20, N-{(R)-1-[2-fluoro-3-(trifluoromethyl)phenyl]ethyl}-1-{5-[1-(1-methyl-3-azetidinyl)-1H-1,2,3-triazol-5-yl]-3-pyridyl}-6-oxo-1,6-dihydropyridazine-3-carboxamide]: the IC50 in assay [1] (setting [3]) and in assay [2] (setting [4]) was less than 50 nM in each case.
As for `C[C@@H](NC(=O)c1ccc(=O)n(-c2cncc(-c3cnnn3C3CN(CCO)C3)c2)n1)c1cccc(C(F)(F)F)c1F` [Example 20-1, (R)-N-(1-(2-fluoro-3-(trifluoromethyl)phenyl)ethyl)-1-(5-(1-(1-(2-hydroxyethyl)azetidin-3-yl)-1H-1,2,3-triazol-5-yl)pyridin-3-yl)-6-oxo-1,6-dihydropyridazine-3-carboxamide], the values for the IC50 in assay [1] (setting [3]) and in assay [2] (setting [4]) were 50 to 150 nM and less than 50 nM, respectively.
In the same order, the values of `C[C@@H](NC(=O)c1ccc(=O)n(-c2cncc(-c3cnnn3C3CNC3)c2)n1)c1cccc(C(F)(F)CO)c1F` [Example 20-2, (R)-1-(5-(1-(azetidin-3-yl)-1H-1,2,3-triazol-5-yl)pyridin-3-yl)-N-(1-(3-(1,1-difluoro-2-hydroxyethyl)-2-fluorophenyl)ethyl)-6-oxo-1,6-dihydropyridazine-3-carboxamide] are less than 50 nM and less than 50 nM.
As to `[2H]C([2H])(O)C(F)(F)c1cccc([C@@H](C)NC(=O)c2ccc(=O)n(-c3cncc(-c4cnnn4C4CNC4)c3)n2)c1F` [Example 20-3, (R)-1-(5-(1-(azetidin-3-yl)-1H-1,2,3-triazol-5-yl)pyridin-3-yl)-N-(1-(3-(1,1-difluoro-2-hydroxyethyl-2,2-dideuterio)-2-fluorophenyl)ethyl)-6-oxo-1,6-dihydropyridazine-3-carboxamide], the IC50 in assay [1] and in assay [2] was less than 50 nM in each case.
Turning to `C[C@@H](NC(=O)c1ccc(=O)n(-c2cncc(-c3cnnn3C3CCNCC3)c2)n1)c1cccc(C(F)(F)F)c1F` [Example 20-4, N-[(1R)-1-[2-fluoro-3-(trifluoromethyl)phenyl]ethyl]-6-oxo-1-[5-[3-(4-piperidyl)triazol-4-yl]-3-pyridyl]pyridazine-3-carboxamide], the IC50 in assay [1] is 50 to 150 nM; in assay [2] it was less than 50 nM.
Take `C[C@@H](NC(=O)c1ccc(=O)n(-c2cncc(-c3cnnn3[C@H]3CCNC3)c2)n1)c1cccc(C(F)(F)F)c1F` [Example 20-5, N-[(1R)-1-[2-fluoro-3-(trifluoromethyl)phenyl]ethyl]-6-oxo-1-[5-[3-[(3S)-pyrrolidin-3-yl]triazol-4-yl]-3-pyridyl]pyridazine-3-carboxamide]: the IC50 in assay [1] and in assay [2] was 50 to 150 nM each time.
On to `C[C@@H](NC(=O)c1ccc(=O)n(-c2cncc(-c3cnnn3C3CCN(C)CC3)c2)n1)c1cccc(C(F)(F)F)c1F` [Example 20-6, (R)-N-(1-(2-fluoro-3-(trifluoromethyl)phenyl)ethyl)-1-(5-(1-(1-methylpiperidin-4-yl)-1H-1,2,3-triazol-5-yl)pyridin-3-yl)-6-oxo-1,6-dihydropyridazine-3-carboxamide], for which the IC50 in assay [1] (setting [3]) and in assay [2] (setting [4]) was less than 50 nM each time.
As for `CC(=O)N1CCC(n2nncc2-c2cncc(-n3nc(C(=O)N[C@H](C)c4cccc(C(F)(F)F)c4F)ccc3=O)c2)CC1` [Example 20-7, (R)-1-(5-(1-(1-acetylpiperidin-4-yl)-1H-1,2,3-triazol-5-yl)pyridin-3-yl)-N-(1-(2-fluoro-3-(trifluoromethyl)phenyl)ethyl)-6-oxo-1,6-dihydropyridazine-3-carboxamide], the IC50 in assay [1] (setting [3]) and in assay [2] (setting [4]) was less than 50 nM throughout.
For the compound `C[C@@H](NC(=O)c1ccc(=O)n(-c2cncc(-c3cnnn3C3CCN(S(C)(=O)=O)CC3)c2)n1)c1cccc(C(F)(F)F)c1F` [Example 20-8, (R)-N-(1-(2-fluoro-3-(trifluoromethyl)phenyl)ethyl)-1-(5-(1-(1-(methylsulfonyl)piperidine-4-yl)-1H-1,2,3-triazol-5-yl)pyridin-3-yl)-6-oxo-1,6-dihydropyridazine-3-carboxamide], the IC50 in assay [1] (setting [3]) and in assay [2] (setting [4]) was less than 50 nM throughout.
`CCN1CC(n2nncc2-c2cncc(-n3nc(C(=O)N[C@H](C)c4cccc(C(F)(F)F)c4F)ccc3=O)c2)C1` [Example 20-9, (R)-1-(5-(1-(1-ethylazetidin-3-yl)-1H-1,2,3-triazol-5-yl)pyridin-3-yl)-N-(1-(2-fluoro-3-(trifluoromethyl)phenyl)ethyl)-6-oxo-1,6-dihydropyridazine-3-carboxamide]: the IC50 in assay [1] (setting [3]) and in assay [2] (setting [4]) was less than 50 nM in each case.
For the compound `CC(=O)N1CC(n2nncc2-c2cncc(-n3nc(C(=O)N[C@H](C)c4cccc(C(F)(F)F)c4F)ccc3=O)c2)C1` [Example 20-10, (R)-1-(5-(1-(1-acetylazetidin-3-yl)-1H-1,2,3-triazol-5-yl)pyridin-3-yl)-N-(1-(2-fluoro-3-(trifluoromethyl)phenyl)ethyl)-6-oxo-1,6-dihydropyridazine-3-carboxamide], the IC50 in assay [1] (setting [3]) and in assay [2] (setting [4]) was less than 50 nM throughout.
Regarding `COC(=O)N1CC(n2nncc2-c2cncc(-n3nc(C(=O)N[C@H](C)c4cccc(C(F)(F)F)c4F)ccc3=O)c2)C1` [Example 20-11, methyl (R)-3-(5-(5-(3-((1-(2-fluoro-3-(trifluoromethyl)phenyl)ethyl)carbamoyl)-6-oxopyridazin-1(6H)-yl)pyridin-3-yl)-1H-1,2,3-triazol-1-yl)azetidine-1-carboxylate], the IC50 in assay [1] (setting [3]) and in assay [2] (setting [4]) was less than 50 nM throughout.
`C[C@@H](NC(=O)c1ccc(=O)n(-c2cncc(-c3cnnn3C3CN(S(C)(=O)=O)C3)c2)n1)c1cccc(C(F)(F)F)c1F` [Example 20-12, (R)-N-(1-(2-fluoro-3-(trifluoromethyl)phenyl)ethyl)-1-(5-(1-(1-(methylsulfonyl)azetidin-3-yl)-1H-1,2,3-triazol-5-yl)pyridin-3-yl)-6-oxo-1,6-dihydropyridazine-3-carboxamide]: the IC50 in assay [1] (setting [3]) and in assay [2] (setting [4]) was less than 50 nM in each case.
Consider `C[C@@H](NC(=O)c1ccc(=O)n(-c2cncc(-c3cnnn3[C@H]3CC3(F)F)c2)n1)c1cccc(C(F)(F)F)c1F` [Example 23, 1-[5-[3-[(1S)-2,2-difluorocyclopropyl]triazol-4-yl]-3-pyridyl]-N-[(1R)-1-[2-fluoro-3-(trifluoromethyl)phenyl]ethyl]-6-oxo-pyridazine-3-carboxamide], for which the IC50 in assay [1] and in assay [2] was 50 to 150 nM in each case.
